Like-named read-outs stand apart in the source and are kept apart here.
Experiment: Determination of stability of UTP and related compound (solution left to stand, HPLC, decomposition rate)
Format: physicochemical
Description: In order to evaluate stability of UTP free, stability of aqueous solutions of UTP free and UTP sodium salt (UTP-Na) and a dimethylacetamide solution of UTP-tributylamine salt (UTP-TBA) was examined. Also, stability of aqueous solutions of UDP free and UDP-Na as comparison control was also determined. The solution of each substance was left to stand for a certain period at −20° C., 25° C. or 50° C., and the concentration of each substance was determined by HPLC to calculate a decomposition rate. Here, the decomposition rate was defined as the following [equation 1]. Decomposition rate (%) of each substance={100−(HPLC % of each substance at determination/HPLC % of each substance at test start)×100} [equation 1]

[1] = aqueous solution left to stand at 25° C., 8 h, 16 mM UTP free, 10 mM UDP free
[2] = aqueous solution left to stand at 25° C., 24 h, 16 mM UTP free, 10 mM UDP free
[3] = 50° C., 8 h, 35 mM UTP-TBA in dimethylacetamide solution, 40 mM UTP-Na and 40 mM UDP-Na in aqueous solution
[4] = 50° C., 24 h, 35 mM UTP-TBA in dimethylacetamide solution, 40 mM UTP-Na and 40 mM UDP-Na in aqueous solution

SMILES | Decomposition rate [1] [%] | Decomposition rate [2] [%] | Decomposition rate [3] [%] | Decomposition rate [4] [%] | Stability during storage of the solution | Decomposition rate (aqueous solution left to stand at −20° C., 18 h, 16 mM UTP free) [%] | Stability during storage of the solution (compared to UTP sodium salt, UDP free and UDP sodium salt)
O=c1ccn([C@@H]2O[C@H](COP(=O)(O)OP(=O)(O)O)[C@@H](O)[C@H]2O)c(=O)[nH]1 [UDP free, uridine 5′-diphosphoric acid] | 0 | 0 |  |  |  |  | 
O=c1ccn([C@@H]2O[C@H](COP(=O)([O-])OP(=O)([O-])O)[C@@H](O)[C@H]2O)c(=O)[nH]1.[Na+].[Na+] [UDP-Na, UDP sodium salt] |  |  | 2 | 5 |  |  | 
O=c1ccn([C@@H]2O[C@H](COP(=O)(O)OP(=O)(O)OP(=O)(O)O)[C@@H](O)[C@H]2O)c(=O)[nH]1 [UTP free, uridine 5′-triphosphoric acid] | 4 | 12 |  |  | clearly low stability | 4 | 
O=c1ccn([C@@H]2O[C@H](COP(=O)([O-])OP(=O)([O-])OP(=O)([O-])O)[C@@H](O)[C@H]2O)c(=O)[nH]1.[Na+].[Na+].[Na+] [UTP-Na, UTP sodium salt] |  |  | 2 | 6 |  |  | 
CCCCN(CCCC)CCCC.O=c1ccn([C@@H]2O[C@H](COP(=O)(O)OP(=O)(O)OP(=O)(O)O)[C@@H](O)[C@H]2O)c(=O)[nH]1 [UTP-TBA, UTP-tributylamine salt] |  |  | 7 | 18 |  |  | clearly low stability
